Measurements as given in patent US20240115557A1, “INHIBITORS OF RNA-GUIDED NUCLEASES AND USES THEREOF” (The Brigham and Women's Hospital, Inc., priority 2022, published 2024).

How the values were obtained:
SpCas9 [1] = target: T1, SpCas9 (Streptococcus pyogenes serotype M1, UniProt Q99ZW2); test: eGFP disruption assay, SpCas9, U2OS.eGFP.PEST cells; type: cell-based; settings: for Normalized Z rep1 / Z score Rep1: replicate 1; for SpCas9 eGFP disruption Rep1: replicate 1, raw readout; for Normalized Z rep2 / Z socre Rep2: replicate 2; for SpCas9 eGFP disruption Rep2: replicate 2, raw readout
T1 sequence (Q99ZW2 whole entry): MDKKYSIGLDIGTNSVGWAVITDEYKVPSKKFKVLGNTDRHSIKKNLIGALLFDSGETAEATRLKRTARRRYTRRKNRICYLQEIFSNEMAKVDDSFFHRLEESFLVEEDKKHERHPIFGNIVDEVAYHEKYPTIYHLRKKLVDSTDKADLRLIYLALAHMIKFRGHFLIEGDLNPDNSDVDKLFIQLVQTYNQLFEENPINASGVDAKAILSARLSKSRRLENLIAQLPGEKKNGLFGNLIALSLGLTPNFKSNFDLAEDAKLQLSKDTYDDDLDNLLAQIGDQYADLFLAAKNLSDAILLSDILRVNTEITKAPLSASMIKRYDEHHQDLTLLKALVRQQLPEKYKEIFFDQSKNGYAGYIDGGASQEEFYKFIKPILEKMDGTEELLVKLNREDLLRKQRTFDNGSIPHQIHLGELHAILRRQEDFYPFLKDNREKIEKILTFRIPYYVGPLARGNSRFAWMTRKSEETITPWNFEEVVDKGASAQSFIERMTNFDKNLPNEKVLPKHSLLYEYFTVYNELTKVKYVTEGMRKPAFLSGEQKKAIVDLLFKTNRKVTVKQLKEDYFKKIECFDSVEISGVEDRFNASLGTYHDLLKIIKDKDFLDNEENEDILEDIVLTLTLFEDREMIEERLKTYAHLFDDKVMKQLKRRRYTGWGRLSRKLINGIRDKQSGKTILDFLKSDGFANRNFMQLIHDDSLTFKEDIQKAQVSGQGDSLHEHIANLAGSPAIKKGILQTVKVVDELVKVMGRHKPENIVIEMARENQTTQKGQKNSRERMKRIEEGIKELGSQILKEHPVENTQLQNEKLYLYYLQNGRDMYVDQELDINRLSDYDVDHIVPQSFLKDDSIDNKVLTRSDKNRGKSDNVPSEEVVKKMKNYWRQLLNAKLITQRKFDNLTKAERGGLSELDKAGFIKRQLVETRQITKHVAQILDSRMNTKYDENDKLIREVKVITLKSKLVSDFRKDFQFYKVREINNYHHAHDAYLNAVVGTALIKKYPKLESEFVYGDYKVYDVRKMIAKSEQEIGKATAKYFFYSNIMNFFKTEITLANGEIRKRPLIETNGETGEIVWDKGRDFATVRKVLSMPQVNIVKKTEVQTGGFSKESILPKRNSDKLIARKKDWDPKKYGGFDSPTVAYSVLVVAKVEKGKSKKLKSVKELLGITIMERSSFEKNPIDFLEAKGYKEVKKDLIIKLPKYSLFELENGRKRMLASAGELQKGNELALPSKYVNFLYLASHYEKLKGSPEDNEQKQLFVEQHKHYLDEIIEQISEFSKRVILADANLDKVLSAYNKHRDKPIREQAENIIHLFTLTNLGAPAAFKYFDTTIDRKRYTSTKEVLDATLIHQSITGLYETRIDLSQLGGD
In short: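 Rescue of eGFP signal lost through Cas9-induced NHEJ indels serves as the inhibition read-out, after 24 h compound exposure (20 μM for hits, variable for dose-response). Editing was delivered by nucleofection into U2OS.eGFP.PEST cells as SpCas9/gRNA plasmids (300/30 ng) or RNP (10/12 pmol). Toxic and autofluorescent compounds were excluded.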

SpCas9 [2] = target: T1, SpCas9; test: HiBiT knock-in assay, SpCas9, HEK293T cells; type: cell-based
Description: Primary and secondary screening. The primary screen assayed a selection of unique chemical scaffolds derived from commercially available compounds and known bioactive molecular libraries (Table 7). Auto-fluorescent compounds were removed by a counter screen. Overall, the CAA was used to assay 122,409 small molecules with over 2,500 unique chemical scaffolds (FIG. 64F, Table 7). Of these compounds, 547 were selected as hits (Z score >3 in both replicates) for testing in orthogonal cell-based secondary assays. Hits were tested in duplicate in an eGFP disruption assay, wherein U2OS.eGFP.PEST cells^33 transfected with SpCas9 plasmid and eGFP-targeting gRNA plasmid were incubated with 20 μM of the compounds. In this assay, any compound that inhibited SpCas9 would rescue the loss of eGFP fluorescence. Here, toxic and auto-fluorescent compounds with a high GFP signal in cells were removed as false positives. […] Next, Applicants tested the 15 compounds in a luminescence-based gain-of-signal HiBiT knock-in assay, which involves SpCas9-mediated homology-directed tagging of GAPDH with a short peptide that luminesces upon complementation with a subunit derived from nanoluciferase.^34 Complementarily, the eGFP-disruption assay is fluorescence-based and involves error-prone DNA repair. As a counter-screen to remove false positives caused by cell death (viability <80%), the cell viability was measured after incubation.
Approximately 400,000 HEK293T cells were nucleofected with 400 ng of SpCas9 plasmid, 40 ng of GAPDH-targeting gRNA plasmid, and 40 pmol of single-strand oligodeoxynucleotide (ssODN) using SF Cell Line 4D-Nucleofector X Kit (Lonza) following the pulse program of DS-150. For RNP-based genome editing, 10 pmol of Cas9 and 12 pmol of gRNA were mixed and incubated for 5 min. Then, 20 pmol of ssODN was added. Cells were nucleofected with the resulting mixture using the same pulse program. Cells were then transferred to a 96-well plate at the density of 35,000 cells per well, and incubated with indicated amount of compounds for 24 h. Cell viability was measured using PrestoBlue reagent (Thermo) with a SpectraMax M5 (Molecular Devices) at the excitation and emission wavelength of 544 nm and 590 nm, respectively. Next, luminescence measurement was performed using the Nano-Glo HiBiT Lytic Detection System (Promega) according to the manufacturer's protocol with an EnVision Multilabel Plate Reader (PerkinElmer) at the integration time of 0.5 s per well. The resulting luminescence signals were normalized based on the cell viability.^34

SaCas9 [3] = target: T2, SaCas9 (Staphylococcus aureus, UniProt J7RUA5); test: eGFP secondary assay, SaCas9; type: cell-based; settings: for Z score Avg Z: average of two replicates, Zscore>3 selected as hit; for Normalized Inhibition Rep 1: replicate 1; for Normalized eGFP Disruption Rep 1: replicate 1, % eGFP disruption; for Z score Rep1: replicate 1, Zscore>3 selected as hit; for Normalized Inhibition Rep 2: replicate 2; for Normalized eGFP Disruption Rep 2: replicate 2, % eGFP disruption; for Z score Rep 2: replicate 2, Zscore>3 selected as hit
T2 sequence (J7RUA5 1-1053): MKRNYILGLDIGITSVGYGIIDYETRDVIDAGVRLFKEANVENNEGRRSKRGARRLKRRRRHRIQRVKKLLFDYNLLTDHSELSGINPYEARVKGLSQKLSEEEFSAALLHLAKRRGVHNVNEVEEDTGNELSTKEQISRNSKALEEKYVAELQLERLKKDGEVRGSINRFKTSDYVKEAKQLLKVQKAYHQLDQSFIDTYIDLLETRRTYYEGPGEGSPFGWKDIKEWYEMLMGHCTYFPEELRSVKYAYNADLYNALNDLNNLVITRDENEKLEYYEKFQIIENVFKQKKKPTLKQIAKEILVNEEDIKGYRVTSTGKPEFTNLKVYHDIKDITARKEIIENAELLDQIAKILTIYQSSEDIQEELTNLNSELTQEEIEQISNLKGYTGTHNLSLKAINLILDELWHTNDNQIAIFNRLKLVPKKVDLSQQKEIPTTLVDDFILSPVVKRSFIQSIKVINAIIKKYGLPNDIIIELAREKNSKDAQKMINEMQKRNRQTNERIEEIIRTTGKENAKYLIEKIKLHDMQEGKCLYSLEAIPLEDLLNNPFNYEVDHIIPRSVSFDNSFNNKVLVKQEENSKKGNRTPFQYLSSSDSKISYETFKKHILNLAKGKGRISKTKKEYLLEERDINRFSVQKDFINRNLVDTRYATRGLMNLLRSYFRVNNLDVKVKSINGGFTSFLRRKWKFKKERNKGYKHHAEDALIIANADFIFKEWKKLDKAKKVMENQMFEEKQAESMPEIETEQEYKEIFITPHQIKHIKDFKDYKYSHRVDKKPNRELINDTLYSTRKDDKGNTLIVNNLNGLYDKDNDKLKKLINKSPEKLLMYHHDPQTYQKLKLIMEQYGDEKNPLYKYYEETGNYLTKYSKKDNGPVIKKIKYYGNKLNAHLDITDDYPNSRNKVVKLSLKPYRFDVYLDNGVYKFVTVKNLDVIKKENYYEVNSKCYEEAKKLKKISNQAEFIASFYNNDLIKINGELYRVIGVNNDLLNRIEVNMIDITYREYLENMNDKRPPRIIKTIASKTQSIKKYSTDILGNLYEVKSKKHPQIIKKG
Protocol: All hit compounds were moved forward into the secondary and tertiary screens, in which they were tested in cell-based assays. An eGFP assay is used to determine hits in cells as the secondary screen (eGFP assay).
The eGFP secondary assay evaluated the hits identified from the primary screen. The compounds were judged off the % eGFP disruption to determine the Cas9 inhibition and the assay Zscore. […] The hits from the secondary screens will be processed through tertiary screens of dose studies and HiBit Assay as detailed herein.

SaCas9 [4] = target: T2, SaCas9; test: Strand displacement assay, SaCas9 primary screen; type: biochemical; settings: for Auto Zscore Rep 1 / Auto Zscore Rep 2 / Normalized Zscore Rep 1 / Normalized Zscore Rep 2: SaCas9 primary screen; for Auto Zscore Rep 1 / Normalized Zscore Rep 1: replicate 1; for Auto Zscore Rep 2 / Normalized Zscore Rep 2: replicate 2; for Normalized Zscore Rep 1 / Normalized Zscore Rep 2: weaker potential hits; for 3 sigma Hit: flag 1 = hit at 3 sigma
In short: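 Cas9 RNP (1:1.2 protein:gRNA) pre-formed in 20 mM Tris-HCl pH 7.5, 100 mM KCl, 5 mM MgCl2, used at 10 nM (2× stock) with Alexa-Fluor 647 substrate/quencher at 1 nM/5 nM (2× stock). Reaction ran 2.5 h at 37°C; strand displacement read as fluorescence. Hits called by Z-score: 3–5σ weak, >5σ strong.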

[5] = result in words, relative to BRD7586
[6] = Cas9 = lower control, Ctrl = upper control
[7] = normalized, lower control about 0, upper control about 1

Compound	Z score Rep1 (SpCas9 [1])	Z socre Rep2 (SpCas9 [1])	SpCas9 eGFP disruption Rep1 (SpCas9 [1]; [6])	Normalized Z rep1 (SpCas9 [1]; [7])	SpCas9 eGFP disruption Rep2 (SpCas9 [1]; [6])	Normalized Z rep2 (SpCas9 [1]; [7])	Z score Avg Z (SaCas9 [3])	Normalized Inhibition Rep 1 (SaCas9 [3])	Normalized eGFP Disruption Rep 1 (SaCas9 [3])	Z score Rep1 (SaCas9 [3])	Normalized Inhibition Rep 2 (SaCas9 [3])	Normalized eGFP Disruption Rep 2 (SaCas9 [3])	Z score Rep 2 (SaCas9 [3])	other results
O=C(CCSc1ccc(Cl)cc1)Nc1nc(-c2ccc(Br)cc2)cs1 [BRD0033]														Activity in eGFP-disruption assay (SpCas9 [1]; [5]): inactive; Activity in HiBiT knock-in assay (SpCas9 [2]; [5]): inactive
COc1ccc(Cc2nn3c(-c4cccnc4)nnc3s2)cc1OC [Compound D727-0069]	−2.26	−1.55												eGFP disruption-% inhibition (SpCas9 [1]): 24.03%; Normalized Z rep1 (SpCas9 [1]): −0.31; SpCas9 eGFP disruption Rep1 (SpCas9 [1]): 59.543; Normalized Z rep2 (SpCas9 [1]): −0.17; SpCas9 eGFP disruption Rep2 (SpCas9 [1]): 58.398; Hibit assay-% inhibition (SpCas9 [2]): 8.56%
COc1ccc(Cc2nnc3sc(Cc4ccc(OC)c(OC)c4)nn23)cc1 [Compound D727-0165]	1.09	−0.43	70.62	0.15	61.783	−0.05								eGFP disruption-% inhibition (SpCas9 [1]): 25.03%; Hibit assay-% inhibition (SpCas9 [2]): 22.01%
Cc1occc1-c1nnc2sc(-c3c[nH]c4ccccc34)nn12 [Compound D727-0786]	0.48	1.91	68.596	0.07	68.839	0.20	5.097	57.282	42.718	8.674	12.722	87.278	1.519	
NC(=O)c1sc(=S)n(Cc2ccccc2)c1N [Compound F128-0030]							8.704	70.438	29.562	9.005	67.693	32.307	8.402	Auto Zscore Rep 1 (SaCas9 [4]): −0.4371; Auto Zscore Rep 2 (SaCas9 [4]): 0.1928; Normalized Zscore Rep 1 (SaCas9 [4]): 0.187; Normalized Zscore Rep 2 (SaCas9 [4]): 0.143; 3 sigma Hit (SaCas9 [4]): 1
O=C(NCCCN1CCC(N2CCCCC2)CC1)C1=Cc2sc3c(c2CS1)CCCC3 [E722-2652]							5.750	43.522	56.478	5.564	47.827	52.173	5.937	Auto Zscore Rep 1 (SaCas9 [4]): 1.567; Auto Zscore Rep 2 (SaCas9 [4]): 0.3807; Normalized Zscore Rep 1 (SaCas9 [4]): 0.4606; Normalized Zscore Rep 2 (SaCas9 [4]): 0.3192; 3 sigma Hit (SaCas9 [4]): 1; 5 sigma Hit (SaCas9 [4]; flag 1 = hit at 5 sigma): 1
CNC(=O)c1sc(=S)n2c1[nH]c(=O)c1cc(Br)ccc12 [F083-0285]	−1.78	−4.46					3.318	30.708	69.292	3.635	22.819	77.181	3.002	Normalized Z rep1 (SpCas9 [1]): −0.25; SpCas9 eGFP disruption Rep1 (SpCas9 [1]): 61.126; Normalized Z rep2 (SpCas9 [1]): −0.48; SpCas9 eGFP disruption Rep2 (SpCas9 [1]): 49.642
C=CC1=C(C(=O)O)N2C(=O)[C@@H](NC(=O)C(=NOCC(=O)O)c3csc(N)n3)[C@H]2SC1.O [SAM001246816]	0.17	−1.15	76.555	0.03	74.015	−0.12	3.731	37.117	62.883	4.745	21.891	78.109	2.717	
O=C1c2ccccc2C(=O)c2oc(-c3ccc(F)cc3)nc21 [T0502-0200]							3.138	35.091	64.909	3.528	35.519	64.481	2.749	
